In brackets after ≈: the same amount, converted by molar mass.
Tests used:
Type in all cases: cell-based
[1] = tested on: Proteus vulgaris OX-19; assay: Antibacterial activity, agar-dilution MIC, organism No. 20; conditions: Proteus vulgaris, OX19; Organism No. 20, bouillon-agar; read-out: Minimum Inhibitory Concentration
Summary of the method: (§1)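 MICs were determined by agar dilution on bouillon-agar medium. The value is the minimum concentration of specimen inhibiting growth, expressed as μg/ml of culture medium.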

[2] = tested on: Salmonella enteritidis G 14; assay: Antibacterial activity, agar-dilution MIC, organism No. 12; conditions: Salmonella enterica, ENTERITIDIS; Organism No. 12, bouillon-agar; read-out: Minimum Inhibitory Concentration
Summary of the method: as §1

[3] = tested on: Enterobacter cloacae 963; assay: Antibacterial activity, agar-dilution MIC, organism No. 24; conditions: Enterobacter cloacae, 963; Organism No. 24, bouillon-agar; read-out: Minimum Inhibitory Concentration
Summary of the method: as §1

[4] = tested on: Streptococcus faecium IFO 3826; assay: Antibacterial activity, agar-dilution MIC, organism No. 27; conditions: Enterococcus faecium, IFO3826; Organism No. 27, bouillon-agar; read-out: Minimum Inhibitory Concentration
Summary of the method: as §1

[5] = tested on: Salmonella typhi 901; assay: Antibacterial activity, agar-dilution MIC, organism No. 9; conditions: Salmonella enterica, TYPHI, read-out: Minimum Inhibitory Concentration
Summary of the method: as §1

[6] = tested on: Proteus rettgeri IFO 3850; assay: Antibacterial activity, agar-dilution MIC, organism No. 22; conditions: Providencia rettgeri, IFO3850; Organism No. 22, bouillon-agar; read-out: Minimum Inhibitory Concentration
Summary of the method: as §1

[7] = tested on: Streptococcus pyogenes Cook; assay: Antibacterial activity, agar-dilution MIC, organism No. 4; conditions: Streptococcus pyogenes; Organism No. 4, bouillon-agar; read-out: Minimum Inhibitory Concentration
Summary of the method: as §1

[8] = tested on: Staphylococcus aureus Terajima; assay: Antibacterial activity, agar-dilution MIC, organism No. 2; conditions: Staphylococcus aureus; Organism No. 2, bouillon-agar; read-out: Minimum Inhibitory Concentration
Summary of the method: as §1

[9] = tested on: Aspergillus niger IFO 6342; assay: Antifungal activity, agar-dilution MIC, organism No. 30; conditions: Aspergillus niger, IFO6342; Organism No. 30, bouillon-agar; read-out: Minimum Inhibitory Concentration
Summary of the method: as §1

[10] = tested on: Micrococcus luteus ATCC 9341; assay: Antibacterial activity, agar-dilution MIC, organism No. 25; conditions: Micrococcus luteus, ATCC9341; Organism No. 25, bouillon-agar; read-out: Minimum Inhibitory Concentration
Summary of the method: as §1

[11] = tested on: Salmonella paratyphi-A 1015; assay: Antibacterial activity, agar-dilution MIC, organism No. 10; conditions: Salmonella enterica, PARATYPHI, read-out: Minimum Inhibitory Concentration
Summary of the method: as §1

[12] = tested on: Proteus vulgaris HX-19; assay: Antibacterial activity, agar-dilution MIC, organism No. 21; conditions: Proteus vulgaris, HX19; Organism No. 21, bouillon-agar; read-out: Minimum Inhibitory Concentration
Summary of the method: as §1

[13] = tested on: Proteus mirabilis IFO 3849; assay: Antibacterial activity, agar-dilution MIC, organism No. 19; conditions: Proteus mirabilis, IFO3849; Organism No. 19, bouillon-agar; read-out: Minimum Inhibitory Concentration
Summary of the method: as §1

[14] = tested on: Salmonella typhimurium IID 971; assay: Antibacterial activity, agar-dilution MIC, organism No. 8; conditions: Salmonella enterica; Organism No. 8, bouillon-agar; read-out: Minimum Inhibitory Concentration
Summary of the method: as §1

[15] = tested on: Bacillus subtilis ATCC 6633; assay: Antibacterial activity, agar-dilution MIC, organism No. 14; conditions: Bacillus subtilis, ATCC6633; Organism No. 14, bouillon-agar; read-out: Minimum Inhibitory Concentration
Summary of the method: as §1

[16] = tested on: Enterobacter aerogenes ATCC 13048; assay: Antibacterial activity, agar-dilution MIC, organism No. 23; conditions: Klebsiella aerogenes, ATCC13048; Organism No. 23, bouillon-agar; read-out: Minimum Inhibitory Concentration
Summary of the method: as §1

[17] = tested on: Streptococcus pyogenes IFO 3340; assay: Antibacterial activity, agar-dilution MIC, organism No. 26; conditions: Streptococcus pyogenes, IFO3340; Organism No. 26, bouillon-agar; read-out: Minimum Inhibitory Concentration
Summary of the method: as §1

[18] = tested on: Proteus morganii IFO 3848; assay: Antibacterial activity, agar-dilution MIC, organism No. 18; conditions: Morganella morganii, IFO3848; Organism No. 18, bouillon-agar; read-out: Minimum Inhibitory Concentration
Summary of the method: as §1

[19] = tested on: Escherichia coli NIHJ-JC-2; assay: Antibacterial activity, agar-dilution MIC, organism No. 5; conditions: Escherichia coli, NIHJJC2; Organism No. 5, bouillon-agar; read-out: Minimum Inhibitory Concentration
Summary of the method: as §1

[20] = tested on: Serratia marcescens IAM 1184; assay: Antibacterial activity, agar-dilution MIC, organism No. 13; conditions: Serratia marcescens, IAM1184; Organism No. 13, bouillon-agar; read-out: Minimum Inhibitory Concentration
Summary of the method: as §1

[21] = tested on: Klebsiella pneumoniae PCI-602; assay: Antibacterial activity, agar-dilution MIC, organism No. 7; conditions: Klebsiella pneumoniae, PCI602; Organism No. 7, bouillon-agar; read-out: Minimum Inhibitory Concentration
Summary of the method: as §1

[22] = tested on: Escherichia coli K12 C600 IAM 1264; assay: Antibacterial activity, agar-dilution MIC, organism No. 6; conditions: Escherichia coli, IAM1264; Organism No. 6, bouillon-agar; read-out: Minimum Inhibitory Concentration
Summary of the method: as §1

[23] = tested on: Mycoplasma pneumoniae IID817; assay: Antimycoplasmal activity, MIC by phenol red colour change, organism No. 28; conditions: Mycoplasma, IID817; Organism No. 28, PPLO broth + 1% glucose, 37° C.; read-out: Minimum Inhibitory Concentration (MIC)
Description: Mycoplasma pneumoniae IID817 was used as the test microorganism in a culture medium prepared by adding 1% of glucose to "PPLO broth (manufactured by Difco Co.) liquid culture medium" at 37° C. with phenol red as an indicator, thereby culturing the test microorganism.

[24] = tested on: Pseudomonas aeruginosa NCTC 10490; assay: Antibacterial activity, agar-dilution MIC, organism No. 16; conditions: Pseudomonas aeruginosa, NCTC10490; Organism No. 16, bouillon-agar; read-out: Minimum Inhibitory Concentration
Summary of the method: as §1

[25] = tested on: Salmonella shottmuelleri 8006; assay: Antibacterial activity, agar-dilution MIC, organism No. 11; conditions: Salmonella, 8006; Organism No. 11, bouillon-agar; read-out: Minimum Inhibitory Concentration
Summary of the method: as §1

[26] = tested on: Staphylococcus aureus FDA 209PJc-1; assay: Antibacterial activity, agar-dilution MIC, organism No. 1; conditions: Staphylococcus aureus, FDA209PJC1; Organism No. 1, bouillon-agar; read-out: Minimum Inhibitory Concentration
Summary of the method: as §1

[27] = tested on: Staphylococcus aureus MS 353; assay: Antibacterial activity, agar-dilution MIC, organism No. 3; conditions: Staphylococcus aureus, MS353; Organism No. 3, bouillon-agar; read-out: Minimum Inhibitory Concentration
Summary of the method: as §1

[28] = tested on: Pseudomonas aeruginosa IFO 3445; assay: Antibacterial activity, agar-dilution MIC, organism No. 15; conditions: Pseudomonas aeruginosa, IFO3445; Organism No. 15, bouillon-agar; read-out: Minimum Inhibitory Concentration
Summary of the method: as §1

[29] = tested on: Candida albicans IAM 4905; assay: Antifungal activity, agar-dilution MIC, organism No. 29; conditions: Candida albicans, IAM4905; Organism No. 29, bouillon-agar; read-out: Minimum Inhibitory Concentration
Summary of the method: as §1

[30] = tested on: Pseudomonas aeruginosa PAO 1; assay: Antibacterial activity, agar-dilution MIC, organism No. 17; conditions: Pseudomonas aeruginosa, PAO1; Organism No. 17, bouillon-agar; read-out: Minimum Inhibitory Concentration
Summary of the method: as §1

Compound: [C-]#[N+]C12CC3(/C=C/C(=O)Nc4ccccc4C(N)=O)OC3C1O2 (stereo not drawn) [compound 62]
- MIC [1]: 3.13 µg/mL (≈ 10.1 µM)
- MIC [2]: 50 µg/mL (≈ 161 µM)
- MIC [3]: > 200 µg/mL
- MIC [4]: > 200 µg/mL
- MIC [5]: 25 µg/mL (≈ 80.3 µM)
- MIC [6]: > 200 µg/mL
- MIC [7]: > 200 µg/mL
- MIC [8]: 50 µg/mL (≈ 161 µM)
- MIC [9]: 100 µg/mL (≈ 321 µM)
- MIC [10]: 25 µg/mL (≈ 80.3 µM)
- MIC [11]: 25 µg/mL (≈ 80.3 µM)
- MIC [12]: 3.13 µg/mL (≈ 10.1 µM)
- MIC [13]: > 200 µg/mL
- MIC [14]: 50 µg/mL (≈ 161 µM)
- MIC [15]: 25 µg/mL (≈ 80.3 µM)
- MIC [16]: > 200 µg/mL
- MIC [17]: 6.25 µg/mL (≈ 20.1 µM)
- MIC [18]: 12.5 µg/mL (≈ 40.2 µM)
- MIC [19]: > 200 µg/mL
- MIC [20]: > 200 µg/mL
- MIC [21]: 3.13 µg/mL (≈ 10.1 µM)
- MIC [22]: > 200 µg/mL
- MIC [23]: < 0.2 µg/mL
- MIC [24]: > 200 µg/mL
- MIC [25]: 25 µg/mL (≈ 80.3 µM)
- MIC [26]: 12.5 µg/mL (≈ 40.2 µM)
- MIC [27]: 12.5 µg/mL (≈ 40.2 µM)
- MIC [28]: > 200 µg/mL
- MIC [29]: 100 µg/mL (≈ 321 µM)
- MIC [30]: > 200 µg/mL

Compound: [C-]#[N+]C12CC3(/C=C/C(=O)Nc4cc(C(=O)OC)ccc4OC)OC3C1O2 (stereo not drawn) [compound 77]
- MIC [1]: > 200 µg/mL
- MIC [2]: > 200 µg/mL
- MIC [3]: > 200 µg/mL
- MIC [4]: > 200 µg/mL
- MIC [5]: > 200 µg/mL
- MIC [6]: 200 µg/mL (≈ 561 µM)
- MIC [7]: > 200 µg/mL
- MIC [8]: > 200 µg/mL
- MIC [9]: 200 µg/mL (≈ 561 µM)
- MIC [10]: 50 µg/mL (≈ 140 µM)
- MIC [11]: > 200 µg/mL
- MIC [12]: 100 µg/mL (≈ 281 µM)
- MIC [13]: > 200 µg/mL
- MIC [14]: > 200 µg/mL
- MIC [15]: 100 µg/mL (≈ 281 µM)
- MIC [16]: > 200 µg/mL
- MIC [17]: 6.25 µg/mL (≈ 17.5 µM)
- MIC [18]: 200 µg/mL (≈ 561 µM)
- MIC [19]: > 200 µg/mL
- MIC [20]: > 200 µg/mL
- MIC [21]: 100 µg/mL (≈ 281 µM)
- MIC [22]: > 200 µg/mL
- MIC [23]: 3.13 µg/mL
- MIC [24]: > 200 µg/mL
- MIC [25]: > 200 µg/mL
- MIC [26]: > 200 µg/mL
- MIC [27]: > 200 µg/mL
- MIC [28]: > 200 µg/mL
- MIC [29]: > 200 µg/mL
- MIC [30]: > 200 µg/mL

Compound: [C-]#[N+]C12CC3(/C=C/C(=O)OCC(=O)c4cccc(OC)c4)OC3C1O2 (stereo not drawn) [compound 7]
- MIC [1]: 1.56 µg/mL (≈ 4.57 µM)
- MIC [2]: 12.5 µg/mL (≈ 36.6 µM)
- MIC [3]: > 100 µg/mL
- MIC [4]: 6.25 µg/mL (≈ 18.3 µM)
- MIC [5]: 6.25 µg/mL (≈ 18.3 µM)
- MIC [6]: > 100 µg/mL
- MIC [7]: 12.5 µg/mL (≈ 36.6 µM)
- MIC [8]: 6.25 µg/mL (≈ 18.3 µM)
- MIC [9]: 3.13 µg/mL (≈ 9.17 µM)
- MIC [10]: 0.39 µg/mL (≈ 1.14 µM)
- MIC [11]: 12.5 µg/mL (≈ 36.6 µM)
- MIC [12]: 0.39 µg/mL (≈ 1.14 µM)
- MIC [13]: 12.5 µg/mL (≈ 36.6 µM)
- MIC [14]: 25 µg/mL (≈ 73.2 µM)
- MIC [15]: 6.25 µg/mL (≈ 18.3 µM)
- MIC [16]: > 100 µg/mL
- MIC [17]: 12.5 µg/mL (≈ 36.6 µM)
- MIC [18]: 12.5 µg/mL (≈ 36.6 µM)
- MIC [19]: 25 µg/mL (≈ 73.2 µM)
- MIC [20]: 25 µg/mL (≈ 73.2 µM)
- MIC [21]: 3.13 µg/mL (≈ 9.17 µM)
- MIC [22]: 12.5 µg/mL (≈ 36.6 µM)
- MIC [23]: < 0.2 µg/mL
- MIC [24]: > 100 µg/mL
- MIC [25]: 6.25 µg/mL (≈ 18.3 µM)
- MIC [26]: 0.39 µg/mL (≈ 1.14 µM)
- MIC [27]: 0.39 µg/mL (≈ 1.14 µM)
- MIC [28]: > 100 µg/mL
- MIC [29]: 1.56 µg/mL (≈ 4.57 µM)
- MIC [30]: > 100 µg/mL

From patent US4684664A, “Derivatives of β-(4-isocyano-1,2,3,4-diepoxycyclopentyl) acrylic acid” (Kureha Kagaku Kogyo Kabushiki Kaisha, priority 1984, dated 1987)
